# From patent US20060160095A1, “Survivin” (EiRx Therapeutics Limited, priority 2002, published 2006)
# System: Neutrophils
# Test: Neutrophil apoptosis by oligonucleosomal DNA fragments after 2-MOE oligonucleotides
# Format: cell-based, human
# Details: cytokine alone
# Procedure: Neutrophil apoptosis is assessed by oligonucleosomal DNA fragmentation (Dibbert et al.(1999) Proc. Natl. Acad. Sci. USA 96, 13330-13335; Hebestreit et al. (1998), J. Exp. Med. 187, 415-425) according to Nicoletti et al. ((1991) J. Immunol. Meth. 139, 271-279). Briefly, cells are resuspended in hypotonic fluorochrome solution containing 50 μg/ml propidium iodide (Sigma Buchs, Switzerland), 0.1% sodium citrate (Sigma) and 0.1% (vol/vol) Triton-X 100 (Sigma), incubated at 4° C. for 10 h, and analyzed by flow cytometry (FACScan, Becton Dickinson, Heidelberg, Germany).
# The 20-mer first generation antisense oligonucleotide 4003 targeting the survivin mRNA has been described above. The second generation 2′-O-methoxy-ethoxy (2′-MOE) gapmer version of 4003 (as) and its 3-base mismatch sequence control (ms) are synthesized using an Applied Biosystems 394B automated DNA synthesizer as described (De Mesaeker et al. (1995) Acc. Chem. Res. 28, 366-374). Sequences are as follows: antisense survivin, cscscsasgsCsCsTsTsCsCsAsGsCsTscscststsg; mismatch survivin, cscstsasgsCsCsTsTsCsCsAsGsGsTscscstsasg. Small letters refer to 2′-O-(2-methoxy)-ethyl-modified nucleotides, capital letters to DNA, and “s” refers to phosphorothioate linkages. Cells isolated and cultured as described above are treated with survivin antisense oligonucleotides (as) or survivin mismatch control oligonucleotides (ms) at the indicated concentrations. In the experiments in which GM-CSF (50 ng/ml; kind gift of T. Hartung, University of Konstanz, Konstanz, Germany) or G-CSF (25 ng/ml; PeproTech, BioConcept, Allschwil, Switzerland) are added, the oligonucleotides are given 2 h before addition of cytokines.
# Values are means ±S.E.M. of four independent experiments. *, p<0.05; **, p<0.01; ***, p<0.001.
substance,measurement,value
Granulocyte macrophage colony-stimulating factor [GM-CSF],DNA-fragmentation of neutrophils with cytokine,prevent DNA-fragmentation
